# Measurements from paper PMC5055185, “Dual pharmacological inhibition of glutathione and thioredoxin systems synergizes to kill colorectal carcinoma stem cells” (Cancer Medicine, 2016).
# Values joined by “and” are separate entries in the source; they are usually repeats but may differ in a detail not shown here. Equal entries are not always repeated.
# Key:
# Type in all cases: cell-based, human
# HCT116 CRC cell line = test: intracellular ROS, CellROX Deep Red flow cytometry, HCT116; details: treated 1 h (menadione 100 μmol/L, 30 min)
# Procedure: In order to estimate the effect of each inhibitor described above, intracellular reactive oxygen species (ROS) were measured using CellROX™ Deep Red reagent (Molecular Probes). Briefly, cells were seeded on 6‐well plates at 1 × 10^6 cells per well. After cells reached 90% confluence, cells were treated with designated reagents for 1 h. CellROX™ Deep Red reagent was added at a final concentration of 5 μmol/L to the culture medium and then incubated for 30 min at 37°C. Subsequently, the medium was removed and the cells were washed with PBS and detached using 0.25% trypsin‐EDTA. The resulting fluorescence was measured using a FACS Calibur flow cytometer (Becton Dickinson, Franklin Lakes, NJ). Menadione (100 μmol/L) was added 30 min before CellROX™ Deep Red reagent treatment as a reference ROS inducer. […] CD44v9 positivity of CTOS cells was analyzed as follows: Cancer spheroids were dispersed with serial treatments of TrypLE™ (20 min, GIBCO) and Accumax™ (10 min, Innovative Cell Technologies, San Diego, CA). Cell surface CD44v9 was stained with CD44v9 antibody (Cosmobio) as well as PE‐conjugated anti‐rat IgG2a (Becton Dickinson). The fluorescence was measured using a FACS Calibur flow cytometer (Becton Dickinson). Since CTOSs contained abundant auto‐fluorescent cells, we defined FL2^+FL1^− cells as authentic PE‐positive (Fig. S4). Thus, CD44v9‐positive rate was defined as FL2^+FL1^−/total live cells and CD44v9‐positive fraction was further gated and split between CD44v9^low and CD44v9^high (Fig. S4), to calculate the mean fluorescent intensity of CD44v9^high fraction.
# One hour after each drug treatment, cells were stained with CellROX DeepRed and intracellular ROS were quantified with FACS. Upper: histogram of fluorescent signal is represented. Lower. representative mean fluorescent intensity scores are shown. Note that without drug treatment (Control), intracellular ROS is higher in OUMS36 and TIG3 (embryonic fibroblasts) but lower in DLD-1 and HCT116 (CRC cell lines). ROS in DLD-1 was increased by auranofin. ROS in HCT116 was increased by all the inhibitors tested. Menadione was used as a reference chemical to increase ROS.
# [1] = system: CTOS71 colorectal cancer tissue‐originated spheroids; test: cell survival (trypan blue exclusion, 5 days), CTOS71; details: for IC50: CTOS71, cellular survival, 5 days; for Ratio of survived cells (Drugs treated/Untreated), Average / Ratio of survived cells (Drugs treated/Untreated), single passage points #: CTOS#71
# From the text: (§1) All experimental procedures were approved by the animal facility at Dokkyo Medical University (ID: 951) and were described elsewhere 10. The existence of CSCs has been experimentally proven through serial xenotransplantation and tumorigenesis 2, 14. […] These subcutaneous tumors were again subjected to enzymatic dissociation and some of the tumor cells were subcutaneously transplanted into other mice. […] Seven cases (CTOS:40, 42, 68, 71, 76, 86, 88) were used for in vitro experiments.
# (§2) Modified procedures of CTOS culture 16 were described elsewhere 10. […] The culture medium was serum‐free advanced DMEM/F‐12 (GIBCO, Waltham, MA) supplemented with FGF‐2 (10 ng/mL, ReproCell, Yokohama, Japan), penicillin ([…], Wako, Osaka, Japan), streptomycin (0.1 mg/mL,Wako), gentamicin (50 μg/mL, Wako), and fungizone (0.25 μg/mL, GIBCO). DLD‐1 and HCT116 CRC cell lines were purchased from JCRB Cell Bank (Osaka, Japan) and RIKEN BioResource Center (Ibaraki, Japan), respectively. In order to estimate pharmacological side effects against normal tissues, human diploid fibroblasts were purchased (JCRB Cell Bank) as model cells. The origins of the fibroblasts were as follows: OUMS‐36 (embryo), TIG‐3 (fetal lung), TIG‐111 (dermal fibroblasts [DFs] from individual), TIG‐119 (DFs from individual), and TIG‐102 (DFs from individual). Adult DFs were purchased from Kurabo (Osaka, Japan). CRC cell lines and fibroblasts were maintained under supplier‐recommended culture conditions. Since the culture conditions are different between fibroblasts and CTOSs, we need to be cautious about the interpretation of data (i.e., lateral comparison between them). […] Colorectal CTOSs display augmented survival through maintaining epithelial structure with E‐cadherin 16. On the other hand, the establishment of conventional cell lines (adherent culture) are much less efficient because constant cell division and autonomous survival are required for the procedure. When we choose CTOSs instead of cancer cell lines, we lose the equivalent condition (adherent culture) as a trade‐off.
# (§3) Each drug's half‐maximal inhibitory concentration (IC50) was calculated based on live cell number ratios (drug treated/untreated × 100%) obtained from serial dilution of drug concentration. The length of drug exposure was 5 days. Each number of live cells was counted automatically by trypan blue exclusion (LUNA automated cell counter, Logos Biosystems, Anyang, South Korea). Cancer spheroids were dispersed with serial treatments (20 min each) of TrypLE™ and Accumax™. Thus, IC50 was determined based on cellular survival, but not on proliferation.
# [2] = system: CTOS88 colorectal cancer tissue‐originated spheroids; test: cell survival (trypan blue exclusion, 5 days), CTOS88; details: for Ratio of survived cells (Drugs treated/Untreated), #3: passage point #3; for Ratio of survived cells (Drugs treated/Untreated), #4: passage point #4; for Ratio of survived cells (Drugs treated/Untreated), #5: passage point #5; for Ratio of survived cells (Drugs treated/Untreated), #1: passage point #1; for Ratio of survived cells (Drugs treated/Untreated), #6: passage point #6
# From the text: as §1, §2, §3
# [3] = system: phosphorylated NRF2 in embryonic fibroblasts (OUMS and TIG3); test: NRF2 phosphorylation by western blotting, embryonic fibroblasts; details: 24 hours, Auranofin 2µM, Piperlongumine 5µM
# [4] = calculated from average % survival
smiles,measurement,setting,value
"COc1cc(/C=C/C(=O)N2CCC=CC2=O)cc(OC)c1OC [Pipe, Piperlongumine]",intracellular ROS response,HCT116 CRC cell line,increase of ROS
same,IC50,[1],6.01 µM
same,"Ratio of survived cells (Drugs treated/Untreated), Average",[1]; Pipe 2.5 microM,80.8%
same,"Ratio of survived cells (Drugs treated/Untreated), single passage points #",[1]; Pipe 2.5 microM,96% and 59% and 102% and 88%
same,"Ratio of survived cells (Drugs treated/Untreated), Average",[1]; Pipe 5 microM,60.8%
same,"Ratio of survived cells (Drugs treated/Untreated), Average",[1]; Pipe 10 microM,27.8%
same,"Ratio of survived cells (Drugs treated/Untreated), single passage points #",[1]; Pipe 10 microM,21% and 20% and 35% and 27% and 36%
same,"Ratio of survived cells (Drugs treated/Untreated), Average",[2]; Pipe 2.5 microM,75.3333%
same,"Ratio of survived cells (Drugs treated/Untreated), #3",[2]; Pipe 2.5 microM,56%
same,"Ratio of survived cells (Drugs treated/Untreated), #4",[2]; Pipe 2.5 microM,86%
same,"Ratio of survived cells (Drugs treated/Untreated), #5",[2]; Pipe 2.5 microM,84%
same,"Ratio of survived cells (Drugs treated/Untreated), Average",[2]; Pipe 5 microM,44.8%
same,"Ratio of survived cells (Drugs treated/Untreated), #1",[2]; Pipe 5 microM,44%
same,"Ratio of survived cells (Drugs treated/Untreated), #3",[2]; Pipe 5 microM,33%
same,"Ratio of survived cells (Drugs treated/Untreated), #4",[2]; Pipe 5 microM,57%
same,"Ratio of survived cells (Drugs treated/Untreated), #5",[2]; Pipe 5 microM,29%
same,"Ratio of survived cells (Drugs treated/Untreated), #6",[2]; Pipe 5 microM,61%
same,"Ratio of survived cells (Drugs treated/Untreated), Average",[2]; Pipe 10 microM,12.2%
same,"Ratio of survived cells (Drugs treated/Untreated), #1",[2]; Pipe 10 microM,19%
same,"Ratio of survived cells (Drugs treated/Untreated), #3",[2]; Pipe 10 microM,4%
same,"Ratio of survived cells (Drugs treated/Untreated), #4",[2]; Pipe 10 microM,16%
same,"Ratio of survived cells (Drugs treated/Untreated), #5",[2]; Pipe 10 microM,5%
same,"Ratio of survived cells (Drugs treated/Untreated), #6",[2]; Pipe 10 microM,17%
same,IC50,[2]; [4],4.25 µM
same,IC50,"[2]; cellular survival, 5 days",4.25 µM
same,NRF2 phosphorylation,[3],not
same,NRF2 phosphorylation,[3]; listed as Piperlongmine,almost negligible
"CC[PH](CC)(CC)[Au][S][C@@H]1O[C@H](COC(C)=O)[C@@H](OC(C)=O)[C@H](OC(C)=O)[C@H]1OC(C)=O [Aura, Auranofin]",intracellular ROS response,HCT116 CRC cell line,increase of ROS
same,IC50,[1],2.21 µM
same,"Ratio of survived cells (Drugs treated/Untreated), Average",[1]; Aura 1 microM,70.2%
same,"Ratio of survived cells (Drugs treated/Untreated), single passage points #",[1]; Aura 1 microM,81% and 77% and 62% and 56% and 75%
same,"Ratio of survived cells (Drugs treated/Untreated), Average",[1]; Aura 2 microM,55.3333%
same,"Ratio of survived cells (Drugs treated/Untreated), Average",[1]; Aura 4 microM,33.1429%
same,"Ratio of survived cells (Drugs treated/Untreated), Average",[2]; Aura 1 microM,78.3333%
same,"Ratio of survived cells (Drugs treated/Untreated), #3",[2]; Aura 1 microM,91%
same,"Ratio of survived cells (Drugs treated/Untreated), #4",[2]; Aura 1 microM,76%
same,"Ratio of survived cells (Drugs treated/Untreated), #5",[2]; Aura 1 microM,68%
same,"Ratio of survived cells (Drugs treated/Untreated), Average",[2]; Aura 2 microM,67%
same,"Ratio of survived cells (Drugs treated/Untreated), #3",[2]; Aura 2 microM,72%
same,"Ratio of survived cells (Drugs treated/Untreated), #4",[2]; Aura 2 microM,61%
same,"Ratio of survived cells (Drugs treated/Untreated), #5",[2]; Aura 2 microM,68%
same,"Ratio of survived cells (Drugs treated/Untreated), Average",[2]; Aura 4 microM,24.3333%
same,"Ratio of survived cells (Drugs treated/Untreated), #1",[2]; Aura 4 microM,33%
same,"Ratio of survived cells (Drugs treated/Untreated), #3",[2]; Aura 4 microM,23%
same,"Ratio of survived cells (Drugs treated/Untreated), #5",[2]; Aura 4 microM,17%
same,IC50,[2]; [4],2.34 µM
same,IC50,"[2]; cellular survival, 5 days",2.34 µM
same,NRF2 phosphorylation,[3],less efficiently phosphorylated
